From patent publication US20060276407A1, “Methods of treating hepatitis C virus” (Schering Corporation, priority 2005, published 2006)
Read-outs that look alike come from different tables or passages of the source.

Assay: Phase 1 rising-single-dose pharmacokinetic study in healthy adult subjects (Example 1)
Type: in vivo, human
Conditions: for half-life / AUC / Tmax / Cmax / Vd/F: human; for AUC: po; for DN AUC(l) / DN AUC(tf) / DN Cmax: dose-normalized (to 50 mg)
Method: A Phase 1, randomized, third-party-blind (within dose level), placebo-controlled, rising-single-dose study of compounds of Formulae I-XXVI was conducted in healthy adult subjects.
Nine subjects in each group received either compound of Formula Ia (n=6) or placebo (n=3). Those subjects randomized to active compound received one of the following doses of compound of Formula Ia: 50, 100, 200, 400, 600, or 800 mg.
On Day 1, at least 10 hours prior to compound administration, an overnight fast was maintained until 4 hours following treatment administration, after which lunch was served. During the fasting period, no food or fluid (except noncarbonated water) was permitted; furthermore, drinking water was prohibited from 2 hours predose to 2 hours postdose, with the exception of the approximately 240 mL administered with the treatments.
Blood samples (7 mL each) for the determination of compound of Formula Ia concentrations were collected immediately prior to dosing (0 hour), and at 0.25, 0.5, 0.75, 1, 1.5, 2, 3, 4, 5, 6, 8, 10, 12, 18, 24, 36, 48, 72, and 144 hours postdose. The blood samples were collected into tubes containing EDTA. The samples were separated by centrifugation at 4° C. for 15 minutes at 1500 g to obtain the plasma, and the plasma samples frozen at −20° C. until assayed.
Plasma concentrations of compound of Formula Ia were determined using a validated liquid chromatography tandem mass spectrometry (LC-MS/MS) method. The assay lower limit of quantitation (LLOQ) was 0.50 ng/mL, and the method was validated over the concentration range of 0.50 to 1000 ng/mL.
The mean and percent coefficients of variation (% CV) were calculated for the plasma concentrations of compound of Formula Ia at each time point. Concentration values less than the assay LLOQ were reported as and set to zero in the calculations and tables. The plasma concentration-time data for compound of Formula Ia were subjected to pharmacokinetic analysis by noncompartmental methods using WinNonlin software. Nominal sampling times were used for pharmacokinetic analysis.
For each subject, the following compound of Formula Ia pharmacokinetic parameters were determined: • Cmax Maximum observed plasma concentration • Tmax Time of maximum observed plasma concentration • tf Time of final quantifiable sample • AUC(tf) Area under the plasma concentration-time curve from time 0 to tf • AUC(l) Area under the plasma concentration-time curve from time 0 to infinity [AUC(l)=[…]+C(tf)estimated/k, where k and C(tf)estimated are terminal elimination rate constant and estimated concentration at final quantifiable sample, respectively] • t½ Terminal-phase half-life (t½=ln 2/k) • CL/F Apparent total body clearance (CL/F=Dose/AUC[l]) • Vd/F Apparent volume of distribution (Vd/F=CL/F*(t1/2/0.693))
Dose-adjusted (to 50 mg) Cmax, AUC(l), and AUC(tf) values were also calculated. Cmax, Tmax, and if were the observed values. The terminal phase rate constant (k) was calculated as the negative of the slope of the log-linear terminal portion of the plasma concentration-time curve using linear regression (at least three time points). The number of points needed to determine the terminal phase rate constant was selected by WinNonlin software.
Summary statistics, including means, standard deviations, and coefficients of variation (CV) expressed as a percent, were computed for the single-dose plasma compound of Formula Ia concentration data at each sampling time point and for the derived pharmacokinetic parameters for each dose level using a standard program based on SAS/STAT (Release 6.12; SAS Institute Inc., North Carolina).
The log-transformed dose-adjusted (to 50 mg) Cmax and AUC values of compound of Formula Ia were statistically analyzed using an analysis of variance (ANOVA) model. The effect due to treatment (dose) was extracted. Ninety-five percent confidence intervals (CIs) for the means at each dose level, based on the nontransformed data, were provided. […]

[1] = plasma, single oral dose 50 mg, mean, n = 6
[2] = plasma, single oral dose 100 mg, mean, n = 6
[3] = plasma, single oral dose 200 mg, mean, n = 6
[4] = plasma, single oral dose 400 mg, mean, n = 6
[5] = plasma, single oral dose 600 mg, mean, n = 6
[6] = plasma, single oral dose 800 mg, mean, n = 6
[7] = single oral dose 50 mg, mean, n = 6
[8] = single oral dose 100 mg, mean, n = 6
[9] = single oral dose 200 mg, mean, n = 6
[10] = single oral dose 400 mg, mean, n = 6
[11] = single oral dose 600 mg, mean, n = 6
[12] = single oral dose 800 mg, mean, n = 6

CC(C)(C)NC(=O)N[C@H](C(=O)N1C[C@H]2[C@@H]([C@H]1C(=O)NC(CC1CCC1)C(=O)C(N)=O)C2(C)C)C(C)(C)C (mixture of isomers) [Formula Ia, (1 R, 5S)-N-[3-Amino-1-(Cyclobutylmethyl)-2,3-Dioxopropyl]-3-[2(S)-[[[(1,1-Dimethylethyl)Amino]Carbonyl]Amino]-3,3-Dimethyl-1-Oxobutyl]-6,6-Dimethyl-3-Azabicyclo[3.1.0]Hexan-2(S)-Carboxamide]
half-life (plasma, oral, 100-800 mg dose cohorts, read-out: mean terminal phase half-life (t½)): 7 to 15 h
AUC (plasma, 50 mg, single oral dose 50 mg, mean, n = 6, read-out: AUC(l)): 181 ng·h/mL
AUC (plasma, 50 mg, single oral dose 50 mg, mean, n = 6, read-out: AUC(tf)): 179 ng·h/mL
AUC (plasma, 100 mg, single oral dose 100 mg, mean, n = 6, read-out: AUC(l)): 345 ng·h/mL
AUC (plasma, 100 mg, single oral dose 100 mg, mean, n = 6, read-out: AUC(tf)): 337 ng·h/mL
AUC (plasma, 200 mg, single oral dose 200 mg, mean, n = 6, read-out: AUC(l)): 846 ng·h/mL
AUC (plasma, 200 mg, single oral dose 200 mg, mean, n = 6, read-out: AUC(tf)): 831 ng·h/mL
AUC (plasma, 400 mg, single oral dose 400 mg, mean, n = 6, read-out: AUC(l)): 1560 ng·h/mL
AUC (plasma, 400 mg, single oral dose 400 mg, mean, n = 6, read-out: AUC(tf)): 1530 ng·h/mL
AUC (plasma, 600 mg, single oral dose 600 mg, mean, n = 6, read-out: AUC(l)): 2160 ng·h/mL
AUC (plasma, 600 mg, single oral dose 600 mg, mean, n = 6, read-out: AUC(tf)): 2140 ng·h/mL
AUC (plasma, 800 mg, single oral dose 800 mg, mean, n = 6, read-out: AUC(l)): 2320 ng·h/mL
AUC (plasma, 800 mg, single oral dose 800 mg, mean, n = 6, read-out: AUC(tf)): 2300 ng·h/mL
Tmax (plasma, across single oral doses 50-800 mg, read-out: median Tmax): 1 to 2.25 h
Cmax [1]: 58.7 ng/mL
Vd/F [1]: 1070 L
Tmax (plasma, single oral dose 50 mg, median, n = 6, read-out: Tmax): 1.5 h
Cmax [2]: 111 ng/mL
Vd/F [2]: 2680 L
half-life (plasma, single oral dose 100 mg, mean, n = 6, read-out: t½ (converted)): 6.84 h
Tmax (plasma, single oral dose 100 mg, median, n = 6, read-out: Tmax): 2 h
Cmax [3]: 281 ng/mL
Vd/F [3]: 3840 L
half-life (plasma, single oral dose 200 mg, mean, n = 6, read-out: t½ (converted)): 10.8 h
Tmax (plasma, single oral dose 200 mg, median, n = 6, read-out: Tmax): 1 h
Cmax [4]: 445 ng/mL
Vd/F [4]: 5400 L
half-life (plasma, single oral dose 400 mg, mean, n = 6, read-out: t½ (converted)): 15.4 h
Tmax (plasma, single oral dose 400 mg, median, n = 6, read-out: Tmax): 1.75 h
Cmax [5]: 528 ng/mL
Vd/F [5]: 4110 L
half-life (plasma, single oral dose 600 mg, mean, n = 6, read-out: t½ (converted)): 10.2 h
Tmax (plasma, single oral dose 600 mg, median, n = 6, read-out: Tmax): 2.25 h
Cmax [6]: 616 ng/mL
Vd/F [6]: 5450 L
half-life (plasma, single oral dose 800 mg, mean, n = 6, read-out: t½ (converted)): 10.1 h
Tmax (plasma, single oral dose 800 mg, median, n = 6, read-out: Tmax): 1.25 h
half-life (single oral dose 50 mg, mean, n = 6, value could not be well characterized because of low plasma concentrations in the terminal phase, read-out: t½ (converted)): 2.69 h
DN AUC(l) (single oral dose 50 mg, mean): 181 ng·h/mL
DN AUC(tf) (single oral dose 50 mg, mean): 179 ng·h/mL
DN Cmax (single oral dose 50 mg, mean): 58.7 ng/mL
CL/F [7]: 277 L/h
tf (time of final quantifiable sample) [7]: 15.3 h
DN AUC(l) (single oral dose 100 mg, mean): 172 ng·h/mL
DN AUC(tf) (single oral dose 100 mg, mean): 169 ng·h/mL
DN Cmax (single oral dose 100 mg, mean): 55.4 ng/mL
CL/F [8]: 315 L/h
tf (time of final quantifiable sample) [8]: 26 h
DN AUC(l) (single oral dose 200 mg, mean): 212 ng·h/mL
DN AUC(tf) (single oral dose 200 mg, mean): 208 ng·h/mL
DN Cmax (single oral dose 200 mg, mean): 70.3 ng/mL
CL/F [9]: 254 L/h
tf (time of final quantifiable sample) [9]: 40.0 h
DN AUC(l) (single oral dose 400 mg, mean): 195 ng·h/mL
DN AUC(tf) (single oral dose 400 mg, mean): 191 ng·h/mL
DN Cmax (single oral dose 400 mg, mean): 55.7 ng/mL
CL/F [10]: 279 L/h
tf (time of final quantifiable sample) [10]: 52.0 h
DN AUC(l) (single oral dose 600 mg, mean): 180 ng·h/mL
DN AUC(tf) (single oral dose 600 mg, mean): 178 ng·h/mL
DN Cmax (single oral dose 600 mg, mean): 44.0 ng/mL
CL/F [11]: 288 L/h
tf (time of final quantifiable sample) [11]: 52 h
DN AUC(l) (single oral dose 800 mg, mean): 145 ng·h/mL
DN AUC(tf) (single oral dose 800 mg, mean): 144 ng·h/mL
DN Cmax (single oral dose 800 mg, mean): 38.5 ng/mL
CL/F [12]: 399 L/h
tf (time of final quantifiable sample) [12]: 56 h
